According to ChEMBL document CHEMBL1821583 (Bioorg Med Chem Lett, 2011):

Tests used:
[1] = Inhibition of hedgehog signaling pathway in mouse Shh Light2 cells by Gli-dependent reporter gene assay; assay type: functional, cell-based; conditions: Shh Light II
[2] = target: T1, Protein smoothened (Homo sapiens, UniProt Q99835); assay: Displacement of BODIPY-cyclopamine from Smo expressed in COS-1 cells after 4 to 6 hrs by Flow Cytometry analysis in presence of 2% fetal calf serum; assay type: cell-based
T1 sequence (Q99835 whole entry): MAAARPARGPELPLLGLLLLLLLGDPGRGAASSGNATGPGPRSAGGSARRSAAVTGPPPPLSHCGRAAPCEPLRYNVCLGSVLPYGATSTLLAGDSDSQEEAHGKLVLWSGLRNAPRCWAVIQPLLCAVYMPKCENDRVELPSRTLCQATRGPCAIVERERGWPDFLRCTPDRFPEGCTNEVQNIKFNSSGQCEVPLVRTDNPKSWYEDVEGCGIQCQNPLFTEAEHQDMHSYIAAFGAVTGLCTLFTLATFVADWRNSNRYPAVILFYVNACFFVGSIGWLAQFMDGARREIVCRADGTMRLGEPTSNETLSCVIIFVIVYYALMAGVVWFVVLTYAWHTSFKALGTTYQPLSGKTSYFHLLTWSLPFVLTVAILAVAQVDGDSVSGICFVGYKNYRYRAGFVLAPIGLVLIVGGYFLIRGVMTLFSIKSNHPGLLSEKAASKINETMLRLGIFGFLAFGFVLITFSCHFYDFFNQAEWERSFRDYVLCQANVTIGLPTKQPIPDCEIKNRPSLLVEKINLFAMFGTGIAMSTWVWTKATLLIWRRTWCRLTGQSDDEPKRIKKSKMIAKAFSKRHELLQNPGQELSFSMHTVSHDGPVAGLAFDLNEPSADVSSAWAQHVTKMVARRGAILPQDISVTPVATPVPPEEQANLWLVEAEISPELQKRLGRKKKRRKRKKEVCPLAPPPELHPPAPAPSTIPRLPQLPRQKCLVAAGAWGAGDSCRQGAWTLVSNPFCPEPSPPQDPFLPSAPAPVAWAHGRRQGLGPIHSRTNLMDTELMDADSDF

[3] = target: T1, Protein smoothened; assay: Displacement of BODIPY-cyclopamine from Smo expressed in COS-1 cells after 4 to 6 hrs by Flow Cytometry analysis in presence of 20% normal human serum; assay type: cell-based
[4] = Lipophilicity, log D of the compound; assay type: physicochemical; conditions: octanol/water
[5] = Intrinsic clearance in rat liver microsomes assessed per mg of protein; assay type: ADME, Microsome
[6] = Intrinsic clearance in human liver microsomes assessed per mg of protein; assay type: ADME, Microsome
[7] = target: Voltage-gated inwardly rectifying potassium channel KCNH2 (Homo sapiens, UniProt Q12809)
Chain of Voltage-gated inwardly rectifying potassium channel KCNH2 (Q12809 whole entry): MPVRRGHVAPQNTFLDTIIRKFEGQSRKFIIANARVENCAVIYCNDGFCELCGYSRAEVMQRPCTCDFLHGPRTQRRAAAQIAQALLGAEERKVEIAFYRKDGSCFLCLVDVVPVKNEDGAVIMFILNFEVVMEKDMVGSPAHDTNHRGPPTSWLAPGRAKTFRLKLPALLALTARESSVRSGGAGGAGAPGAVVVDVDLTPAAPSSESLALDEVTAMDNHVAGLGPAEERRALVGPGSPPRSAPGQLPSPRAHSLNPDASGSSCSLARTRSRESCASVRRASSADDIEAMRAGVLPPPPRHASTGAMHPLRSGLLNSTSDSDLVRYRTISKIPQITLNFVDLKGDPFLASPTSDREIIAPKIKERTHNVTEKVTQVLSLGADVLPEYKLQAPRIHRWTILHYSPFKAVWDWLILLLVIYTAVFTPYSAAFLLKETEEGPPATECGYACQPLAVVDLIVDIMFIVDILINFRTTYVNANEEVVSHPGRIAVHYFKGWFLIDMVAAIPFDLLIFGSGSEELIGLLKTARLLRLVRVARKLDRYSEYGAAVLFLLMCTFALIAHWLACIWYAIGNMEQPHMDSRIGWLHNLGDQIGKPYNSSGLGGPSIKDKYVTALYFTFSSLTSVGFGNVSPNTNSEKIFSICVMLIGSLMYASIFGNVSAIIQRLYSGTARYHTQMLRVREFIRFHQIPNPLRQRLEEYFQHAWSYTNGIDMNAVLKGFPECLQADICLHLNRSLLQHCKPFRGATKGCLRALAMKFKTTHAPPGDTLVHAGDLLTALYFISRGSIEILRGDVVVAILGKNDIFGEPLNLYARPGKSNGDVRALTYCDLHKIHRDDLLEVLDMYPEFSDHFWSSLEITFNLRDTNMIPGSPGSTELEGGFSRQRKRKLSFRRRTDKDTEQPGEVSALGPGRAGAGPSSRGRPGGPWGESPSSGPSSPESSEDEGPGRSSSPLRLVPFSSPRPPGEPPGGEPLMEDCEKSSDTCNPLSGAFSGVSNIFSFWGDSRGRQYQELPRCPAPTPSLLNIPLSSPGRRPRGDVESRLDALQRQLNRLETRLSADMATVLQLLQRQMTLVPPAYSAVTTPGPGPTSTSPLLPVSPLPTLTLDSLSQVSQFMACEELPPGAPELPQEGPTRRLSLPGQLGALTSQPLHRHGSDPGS

[8] = Clearance in iv dosed rat; assay type: ADME, organism-based; conditions: in vivo

IC50 [1]	IC50 [2]	IC50 [3]	logD [4]	microsomal CLint [5]	microsomal CLint [6]	clearance [8]	Compound	IC50 [7]
0.046 µM	0.03 µM	0.1 µM	2.62	> 500 µL/min/mg	> 400 µL/min/mg		O=C(NCC1(N2CCOCC2)CCCC1)N1CCC(c2nc(-c3ccc4ccccc4n3)no2)CC1	10 µM
0.6 µM	0.91 µM	6.9 µM					O=C(NCC1(CO)CCCC1)N1CCC(c2nc(-c3ccc4ccccc4n3)no2)CC1	
	0.23 µM	7 µM					O=C(NCC1(C(=O)N2CCCCC2)CCCC1)N1CCC(c2nc(-c3ccc4ccccc4n3)no2)CC1	
0.19 µM	0.32 µM	13 µM					CC(=O)NC1(CNC(=O)N2CCC(c3nc(-c4ccc5ccccc5n4)no3)CC2)CCCC1	
2 µM	2 µM	14 µM					CC(C)(C)OC(=O)NC1(CNC(=O)N2CCC(c3nc(-c4ccc5ccccc5n4)no3)CC2)CCCC1	
0.14 µM	0.023 µM	0.072 µM		> 500 µL/min/mg	> 500 µL/min/mg		O=C(NCC1(N2CCOCC2)CCCCC1)N1CCC(c2nc(-c3ccc4ccccc4n3)no2)CC1	4.3 µM
0.33 µM	0.24 µM	0.48 µM					O=C(NCC1(N2CCOCC2)CCCCCC1)N1CCC(c2nc(-c3ccc4ccccc4n3)no2)CC1	
0.069 µM	0.032 µM	0.042 µM		100 µL/min/mg	52 µL/min/mg		O=C(NCC1(N2CCCC2)CCCC1)N1CCC(c2nc(-c3ccc4ccccc4n3)no2)CC1	7.1 µM
0.1 µM	0.046 µM	0.051 µM		160 µL/min/mg	49 µL/min/mg	> 6 L/h/kg	O=C(NCC1(N2CCCCC2)CCCC1)N1CCC(c2nc(-c3ccc4ccccc4n3)no2)CC1	
0.31 µM	0.3 µM	0.37 µM		27 µL/min/mg	40 µL/min/mg		CN(C)C1(CNC(=O)N2CCC(c3nc(-c4ccc5ccccc5n4)no3)CC2)CCCC1	38 µM
0.35 µM	0.63 µM	0.79 µM					NC1(CNC(=O)N2CCC(c3nc(-c4ccc5ccccc5n4)no3)CC2)CCCC1	
0.088 µM	0.046 µM	0.091 µM		51 µL/min/mg	7 µL/min/mg		CCNC1(CNC(=O)N2CCC(c3nc(-c4ccc5ccccc5n4)no3)CC2)CCCC1	24 µM
0.025 µM	0.016 µM	0.058 µM					CC(C)NC1(CNC(=O)N2CCC(c3nc(-c4ccc5ccccc5n4)no3)CC2)CCCC1	
0.43 µM	0.14 µM	0.52 µM					O=C(NCC1(NC2CCCCC2)CCCC1)N1CCC(c2nc(-c3ccc4ccccc4n3)no2)CC1	
0.09 µM	0.11 µM	0.2 µM					O=C(NCC1(N2CCC(F)CC2)CCCC1)N1CCC(c2nc(-c3ccc4ccccc4n3)no2)CC1	
0.1 µM	0.18 µM	0.95 µM					O=C(NCC1(N2CCC(F)(F)CC2)CCCC1)N1CCC(c2nc(-c3ccc4ccccc4n3)no2)CC1	
0.26 µM	0.21 µM	0.53 µM					COC1CCN(C2(CNC(=O)N3CCC(c4nc(-c5ccc6ccccc6n5)no4)CC3)CCCC2)CC1	
0.45 µM	0.51 µM	0.4 µM					CN1CCN(C2(CNC(=O)N3CCC(c4nc(-c5ccc6ccccc6n5)no4)CC3)CCCC2)CC1	

More lines, now with the values behind:

Compound	IC50 [1]	IC50 [2]	IC50 [3]	logD [4]	microsomal CLint [5]	microsomal CLint [6]	clearance [8]	IC50 [7]
O=C(NCC1(c2ccccc2)CCCC1)N1CCC(c2nc(-c3ccc4ccccc4n3)no2)CC1	0.41 µM	0.81 µM	4.5 µM					
O=C(NCCN1CCOCC1)N1CCC(c2nc(-c3ccc4ccccc4n3)no2)CC1	2.5 µM	4.9 µM	3.4 µM					
CC(C)(CNC(=O)N1CCC(c2nc(-c3ccc4ccccc4n3)no2)CC1)N1CCOCC1	0.45 µM	0.29 µM	0.67 µM		> 300 µL/min/mg	112 µL/min/mg		
CCN(CC)C1(CNC(=O)N2CCC(c3nc(-c4ccc5ccccc5n4)no3)CC2)CCCC1	0.12 µM	0.055 µM	0.046 µM		> 200 µL/min/mg	98 µL/min/mg		9.4 µM
O=C(NCC(c1ccccc1)N1CCCCC1)N1CCC(c2nc(-c3ccc4ccccc4n3)no2)CC1 (stereo not given)	0.13 µM	0.21 µM	0.33 µM					
O=C(NCC(c1ccccn1)N1CCOCC1)N1CCC(c2nc(-c3ccc4ccccc4n3)no2)CC1 (stereo not given)	0.79 µM	2.7 µM	4.2 µM					
O=C(NCC(c1cccnc1)N1CCOCC1)N1CCC(c2nc(-c3ccc4ccccc4n3)no2)CC1 (stereo not given)	4.2 µM	2.6 µM	9.9 µM					
O=C(NCC(c1ccncc1)N1CCOCC1)N1CCC(c2nc(-c3ccc4ccccc4n3)no2)CC1 (stereo not given)	8.2 µM	8.6 µM	17 µM					
CCN1CCCC1CNC(=O)N1CCC(c2nc(-c3ccc4ccccc4n3)no2)CC1 (stereo not given)		0.29 µM	0.49 µM					
CC(C)N1CCCC1CNC(=O)N1CCC(c2nc(-c3ccc4ccccc4n3)no2)CC1 (stereo not given)	0.85 µM	0.34 µM	0.65 µM		19 µL/min/mg	10 µL/min/mg	> 6 L/h/kg	
CCN1CCCCC1CNC(=O)N1CCC(c2nc(-c3ccc4ccccc4n3)no2)CC1 (stereo not given)	0.13 µM	0.064 µM	0.08 µM					
CCN1CCOCC1CNC(=O)N1CCC(c2nc(-c3ccc4ccccc4n3)no2)CC1 (stereo not given)	0.23 µM	0.3 µM	0.39 µM					
O=C(NCC1NCCc2ccccc21)N1CCC(c2nc(-c3ccc4ccccc4n3)no2)CC1 (stereo not given)	0.96 µM	0.38 µM	0.6 µM					
CN1CCc2ccccc2C1CNC(=O)N1CCC(c2nc(-c3ccc4ccccc4n3)no2)CC1 (stereo not given)	0.38 µM	0.36 µM	0.47 µM					
Cn1c(-c2noc(C3CCN(C(=O)NCC4(N5CCOCC5)CCCC4)CC3)n2)nc2ccccc21	0.018 µM	0.017 µM	0.015 µM					
Cn1c(-c2noc(C3CCN(C(=O)NCC4(N5CCCCC5)CCCC4)CC3)n2)nc2ccccc21	0.023 µM	0.021 µM	0.019 µM					
O=C(NCC1(N2CCOCC2)CCCC1)N1CCN(c2nc(-c3ccc4ccccc4n3)no2)CC1	0.016 µM	0.01 µM	0.015 µM					
O=C(NCC1(N2CCCCC2)CCCC1)N1CCN(c2nc(-c3ccc4ccccc4n3)no2)CC1	0.04 µM	0.008 µM	0.01 µM				> 6 L/h/kg	
Cn1c(-c2noc(N3CCN(C(=O)NCC4(N5CCCCC5)CCCC4)CC3)n2)nc2ccccc21	0.004 µM	0.005 µM	0.006 µM					
O=C(NC1CCC(F)(F)CC1)N1CCN(c2nc(-c3ccc4ccccc4n3)no2)CC1	0.005 µM	0.013 µM	0.013 µM					
